From patent publication EP0638566B1, “5-Aminoflavone derivatives, their preparation and their use as antibacterial, anti-estrogenic and/or antitumor agent” (KYOWA HAKKO KOGYO CO., LTD., priority 1993, dated 1995)
In brackets after ≈: the same amount, converted by molar mass. Counter-ions that a name gives are not always drawn. Like-named read-outs stand apart in the source and are kept apart here. One block for each molecule: values may come before it.

Tests used:
Bacillus subtilis #10107 = assay: Antibacterial activity, agar dilution method; assay type: cell-based
Description: Antibacterial activity of compound (I) against Bacillus subtilis #10107 [Minimum Inhibition Concentration(MIC; µg/ml)] is shown in Table 6. Minimum Inhibition Concentration was determined by agar dilution method at pH 7.0.

[1] = tested on: Human mammary cancer MCF-7 cell; assay: Human mammary cancer MCF-7 cell growth inhibition test (neutral red); assay type: cell-based
Description: Human mammary cancer MCF-7 cell growth inhibition test
Each 0.1 ml of MCF-7 cells which had been prepared to 5 x 10^4/ml using a medium (referred to as Medium B hereinafter) prepared by adding 10% bovine fetal serum, 10^-8M estradiol (manufactured by Sigma), 100 units/ml penicillin and 100 µg/ml streptomycin to RPMI1640 medium was distributed in each well of 96 well-microtiter plate. […] Supernatant was removed, each 0.1 ml of Medium B containing 0.02% neutral red was added to the residue, the mixture was cultured at 37 °C for 1 hour in a CO2 gas incubator and the cells were stained by neutral red dye. Supernatant was removed and the residue was washed once with a physiological saline. Then, the dye was extracted with 0.001N hydrochloric acid/30% ethanol and the absorbance at 550 nm was determined with a microplatereader.

[2] = tested on: estrogen-dependent human mammary cancer MCF-7; assay: Antitumor effects against MCF-7 tumor transplanted in nude mice; assay type: in vivo, female BALB/c-nu/nu mice; conditions: Mus musculus, MCF7, 5 days per week for two weeks, read-out: T/C; for response vs control in vivo at 50 mg/kg: dose 50 mg/kg oral
Excerpt: Antitumor effects against estrogen-dependent human mammary cancer MCF-7
The tumor fragment (2mm x 2mm x 2mm) of human hormone dependent mammary cancer MCF-7 was transplanted subcutaneously in the flank of female BALB/c-nu/nu mice (Nihon Crea), 7 to 9 weeks age. […] 3 to 4 Weeks after transplantation, mice of the tumor volume of 25 to 200 mm^3 were selected, and the test compounds were orally administered repeatedly to the groups (5 animals per group) for 5 days per a week, for total two weeks. In addition, estradiol propionate was administered again on the date of initial administration of the test compounds. Length and width of the tumor were determined every day, and the tumor volumes were calculated by means of ellipsoid approximation according to the following equation: […] [formula] The tumor volume at initial administration (Vo) and on the day of judgement (V) was calculated, and the tumor growth rate (V/Vo) was calculated. T/C value was obtained as the ratio of V/Vo value of treated group relative to that of control group.

[3] = tested on: estrogen-dependent human mammary cancer Br-10; assay: Antitumor effects against Br-10 tumor transplanted in nude mice; assay type: in vivo, female BALB/c-nu/nu mice; conditions: 5 days per week for two to four weeks
Excerpt: Antitumor effects against estrogen-dependent human mammary cancer Br-10
The tumor fragment (2mm x 2mm x 2mm) of human hormone dependent mammary cancer Br-10 was transplanted subcutaneously in the flank of female BALB/c-nu/nu mice (Nihon Crea), 7 to 9 weeks age. […] 3 to 4 Weeks after transplantation, mice the tumor volume of which increased to 30 to 150 mm^3 were selected, and the test compounds were orally administered repeatedly to the groups (5 animals per group) for 5 days per a week, for total two to four weeks. Estradiol propionate was additionally administered on the date of initial administration of the test compounds and 14 days after the administration. Length and breadth of the tumor were determined every day, and the tumor volumes were calculated by means of ellipsoid approximation according to the above equation. The tumor volume at initial administration (Vo) and on the day of judgement (V) was calculated, and the tumor growth rate (V/Vo) was calculated. T/C value was obtained as the ratio of V/Vo value of treated group relative to that of control group.

[4] = tested on: uterus weight of immature mice; assay: Effect against the increase in uterus weight of immature mice; assay type: in vivo, female BALB/c mice; conditions: for Weight of uterus: dose 5 mg/kg, oral, three days, uteri isolated after four days
Description: The effect against the increase in uterus weight of immature mice
Immature female BALB/c mice, 4 weeks age, were divided into two groups and 50 µg of estradiol was subcutaneously administered to the animals of one group in the chest. The test compounds were repeatedly administered orally to each group (8 animals per group) for three days since the date of estradiol administration. After four days, the uteri were isolated and the weight thereof was measured.
In Table 2, "estradiol (-)" represents an estradiol-untreated group and "estradiol (+)" represents an estradiol-treated group.

[5] = Minimum Inhibition Concentration, agar dilution method at pH 7.0, read-out: MIC
[6] = MCF7, MCF-7 cells, medium with 10^-8M estradiol, 72 hours, neutral red, absorbance at 550 nm, read-out: IC50

Compound: CSc1c(F)c(N)c2c(=O)cc(-c3ccc(N)c(F)c3)oc2c1F [Compound 10, 5-Amino-2-(4-amino-3-fluorophenyl)-6,8-difluoro-7-methylthio-4H-1-benzopyran-4-one]
- IC50 ([1]; MCF7, 72 h): 190 nM

Compound: CC(=O)OCc1c(F)c(N)c2c(=O)cc(-c3ccc(N)c(F)c3)oc2c1F [Compound 44, 7-Acetoxymethyl-5-amino-2-(4-amino-3-fluorophenyl)-6,8-difluoro-4H-1-benzopyran-4-one]
- response vs control in vivo at 25 mg/kg ([2]; dose 25 mg/kg oral, judgement day 14): 6.1%
- IC50 ([1]; MCF7, 72 h): 26 nM

Compound: Cc1c(F)c(N)c2c(=O)cc(-c3ccc(N)c(Cl)c3)oc2c1F [Compound 24, 5-Amino-2-(4-amino-3-chlorophenyl)-6,8-difluoro-7-methyl-4H-1-benzopyran-4-one]
- IC50 [1, 6]: 92 nM

Compound: C[S+]([O-])c1c(F)c(N)c2c(=O)cc(-c3ccc(N)c(F)c3)oc2c1F (centres unmarked) [Compound 11, 5-Amino-2-(4-amino-3-fluorophenyl)-6,8-difluoro-7-methylsulfinyl-4H-1-benzopyran-4-one]
- IC50 [1, 6]: 2500 nM

Compound: CN(C)Cc1c(F)c(N)c2c(=O)cc(-c3ccc(N)c(F)c3)oc2c1F [Compound 42, Hydrochloride of 5-amino-2-(4-amino-3-fluorophenyl)-7-dimethylaminomethyl-6,8-difluoro-4H-1-benzopyran-4-one]
- IC50 ([1]; MCF7, 72 h): 72 nM

Compound: Nc1ccc(-c2cc(=O)c3c(N)c(F)c(N)c(F)c3o2)cc1F [Compound 16, 5,7-Diamino-2-(4-amino-3-fluorophenyl)-6,8-difluoro-4H-1-benzopyran-4-one]
- response vs control in vivo at 12.5 mg/kg ([2]; dose 12.5 mg/kg oral, judgement day 22): 18%
- T/C ([3]; dose 12.5 mg/kg oral, judgement day 18): 0.24
- IC50 ([1]; MCF7, 72 h): 7.7 nM

Compound: NCc1c(F)c(N)c2c(=O)cc(-c3ccc(N)c(F)c3)oc2c1F [Compound 41, 5-Amino-2-(4-amino-3-fluorophenyl)-7-aminomethyl-6,8-difluoro-4H-1-benzopyran-4-one]
- response vs control in vivo at 50 mg/kg ([2]; judgement day 18): 1.1%
- MIC (Bacillus subtilis #10107; pH 7): 3.26 µg/mL (≈ 9.72 µM)
- IC50 ([1]; MCF7, 72 h): 26 nM

Compound: Nc1ccc(-c2cc(=O)c3c(N)c(F)c(CO)c(F)c3o2)cc1F [Compound 39, 5-Amino-2-(4-amino-3-fluorophenyl)-6,8-difluoro-7-hydroxymethyl-4H-1-benzopyran-4-one]
- response vs control in vivo at 50 mg/kg ([2]; judgement day 14): 1.6%
- IC50 ([1]; MCF7, 72 h): 62 nM

Compound: CC(=O)c1c(F)c(N)c2c(=O)cc(-c3ccc(N)c(F)c3)oc2c1F [Compound 22, 7-Acetyl-5-amino-2-(4-amino-3-fluorophenyl)-6,8-difluoro-4H-1-benzopyran-4-one]
- MIC (Bacillus subtilis #10107; [5]): 13 µg/mL (≈ 37.3 µM)

Compound: CN(C)CCOc1c(F)c(N)c2c(=O)cc(-c3ccc(N)c(F)c3)oc2c1F [Compound 9, 5-Amino-2-(4-amino-3-fluorophenyl)-7-(2-dimethylaminoethoxy)-6,8-difluoro-4H-1-benzopyran-4-one]
- response vs control in vivo at 50 mg/kg ([2]; judgement day 15): 42%
- MIC (Bacillus subtilis #10107; pH 7): 52.1 µg/mL (≈ 132 µM)
- IC50 ([1]; MCF7, 72 h): 1400 nM

Compound: CC/C(=C(\c1ccccc1)c1ccc(OCCN(C)C)cc1)c1ccccc1 [Tamoxifen]
- Weight of uterus ([4]; estradiol (+) (50 µg estradiol s.c.)): 47 mg
- Weight of uterus ([4]; estradiol (-) (estradiol-untreated group)): 49 mg
- anti-estrogenic activity (increase in the uterus weight observed in an estradiol-treated group) ([4]; result in words, estradiol-treated group, oral administration): weak anti-estrogenic activity
- weight of the uterus in an estradiol-untreated group ([4]; result in words, estradiol-untreated group): significantly increases the weight of the uterus
- response vs control in vivo at 5 mg/kg ([2]; dose 5 mg/kg oral, judgement day 22): 25%
- T/C ([3]; dose 5 mg/kg oral, judgement day 25): 0.58

Compound: COc1c(F)c(N)c2c(=O)cc(-c3ccc(N)c(F)c3)oc2c1F [Compound 8, 5-Amino-2-(4-amino-3-fluorophenyl)-6,8-difluoro-7-methoxy-4H-1-benzopyran-4-one]
- IC50 ([1]; MCF7, 72 h): 100 nM

Compound: COCc1c(F)c(N)c2c(=O)cc(-c3ccc(N)c(F)c3)oc2c1F [Compound 43, 5-Amino-2-(4-amino-3-fluorophenyl)-6,8-difluoro-7-methoxymethyl-4H-1-benzopyran-4-one]
- IC50 [1, 6]: 46 nM

Now from value to molecule, other results behind:

- MIC (Bacillus subtilis #10107; [5]): 13 µg/mL (≈ 32.1 µM)
Compound: Cc1c(F)c(NCCCN(C)C)c2c(=O)cc(-c3ccc(N)c(F)c3)oc2c1F [Compound 37, 2-(4-Amino-3-fluorophenyl)-5-[3-(dimethylamino)propylamino]-6,8-difluoro-7-methyl-4H-1-benzopyran-4-one]

- IC50 [1, 6]: 210 nM
Compound: Nc1ccc(-c2cc(=O)c3c(N)c(F)c(Cl)c(F)c3o2)cc1F [Compound 5, 5-Amino-2-(4-amino-3-fluorophenyl)-7-chloro-6,8-difluoro-4H-1-benzopyran-4-one]

- IC50 [1, 6]: 130 nM
Compound: CCc1c(F)c(N)c2c(=O)cc(-c3ccc(N)c(F)c3)oc2c1F [Compound 2, 5-Amino-2-(4-amino-3-fluorophenyl)-7-ethyl-6,8-difluoro-4H-1-benzopyran-4-one]

- MIC (Bacillus subtilis #10107; [5]): 52.1 µg/mL (≈ 128 µM)
Compound: CN(C)CCCNc1c(F)c(N)c2c(=O)cc(-c3ccc(N)c(F)c3)oc2c1F [Compound 18, 5-Amino-2-(4-amino-3-fluorophenyl)-7-[3-(dimethylamino)propylamino]-6,8-difluoro-4H-1-benzopyran-4-one]

- IC50 [1, 6]: 160 nM
Compound: Nc1ccc(-c2cc(=O)c3c(N)c(F)c(Br)c(F)c3o2)cc1F [Compound 6, 5-Amino-2-(4-amino-3-fluorophenyl)-7-bromo-6,8-difluoro-4H-1-benzopyran-4-one]
- response vs control in vivo at 50 mg/kg ([2]; judgement day 21): 54%

- IC50 [1, 6]: 220 nM
Compound: Nc1ccc(-c2cc(=O)c3c(N)c(F)c(F)c(F)c3o2)cc1F [Compound 34, 5-Amino-2-(4-amino-3-fluorophenyl)-6,7,8-trifluoro-4H-1-benzopyran-4-one]

- MIC (Bacillus subtilis #10107; [5]): 13 µg/mL (≈ 30 µM)
Compound: CCN(CC)CCCNc1c(F)c(C)c(F)c2oc(-c3ccc(N)c(F)c3)cc(=O)c12 [Compound 38, 2-(4-Amino-3-fluorophenyl)-5-[3-(diethylamino)propylamino]-6,8-difluoro-7-methyl-4H-1-benzopyran-4-one]

- IC50 [1, 6]: 1400 nM
Compound: CCOC(=O)c1c(F)c(N)c2c(=O)cc(-c3ccc(N)c(F)c3)oc2c1F [Compound 13, 5-Amino-2-(4-amino-3-fluorophenyl)-7-ethoxycarbonyl-6,8-difluoro-4H-1-benzopyran-4-one]

- IC50 [1, 6]: 39 nM
Compound: CN(C)c1c(F)c(N)c2c(=O)cc(-c3ccc(N)c(F)c3)oc2c1F [Compound 17, 5-Amino-2-(4-amino-3-fluorophenyl)-7-dimethylamino-6,8-difluoro-4H-1-benzopyran-4-one]
- T/C ([3]; dose 25 mg/kg oral, judgement day 18): 0.22

- IC50 [1, 6]: 65 nM
Compound: CCc1cc(-c2cc(=O)c3c(N)c(F)c(C)c(F)c3o2)ccc1N [Compound 26, 5-Amino-2-(4-amino-3-ethylphenyl)-6,8-difluoro-7-methyl-4H-1-benzopyran-4-one]
